Assay results published in patent US4428963A, “Novel thiophene derivatives” (Hoffmann-La Roche Inc., priority 1983, dated 1984).

Legend:
[1] = test system: Fatty Acid Synthesis (liver); assay: In vivo lipogenesis in rat liver after intraperitoneal administration (Table II); settings: i.p. 0.1 mmoles/kg; control 614 ± 66
Procedure: (§1) Rats are prepared by fasting 48 hours and refeeding a 1% corn oil 70% glucose diet for several days (5-15). On the experimental day, rats are dosed 30 or 60 minutes before the 3 hour meal by oral intubation, or 60 minutes after the end of the 3 hour meal by intraperitoneal injection. (The dose concentrated is a mmoles/kg/5-10 ml H2 O or 1% gum arabic depending on the solubility of the compound.) Rats are sacrificed by decapitation after a 30 minute pulse consisting of: 1mCi^3 H2 O,5 μCi[U-^14 C]alanine, 12.3 mg. alanine, and 30.6 mg α-ketoglutaric acid in […], given at the end of the 3 hour meal by i.v. injection into the tail vein. Blood was collected, allowed to clot and the serum analyzed for triglyceride and cholesterol levels. […] At this stage the lipids are either counted (to determine the rate of lipogenesis) or precipitated with digitonin, washed, and counted (to determine the rate of cholesterogenesis). The conversion of ^3 H2 O and [^14 C]alanine into fatty acids or sterols is determined in a PDS/3, Mark II liquid scintillation counting system. Data are expressed as moles ^3 H2 O nmoles converted into fatty acids and cholesterol per g liver per 30 minutes. […]
(§2) sacrificed and rates of synthesis determined.
(§3) ^b Data are expressed as μmoles ^3 H2 O and moles[ ^1 […]

[2] = test system: Cholesterol Synthesis (liver); assay: In vivo cholesterogenesis in rat liver after intraperitoneal administration (Table II); settings: i.p. 0.1 mmoles/kg
Procedure: as §1, §2, §3

[3] = Serum lipids after intraperitoneal administration (Table III); assay type: in vivo, rat; settings: i.p. 0.1 mmoles/kg
Procedure: Rats are prepared by fasting 48 hours and refeeding a 1% corn oil 70% glucose diet for several days (5-15). On the experimental day, rats are dosed 30 or 60 minutes before the 3 hour meal by oral intubation, or 60 minutes after the end of the 3 hour meal by intraperitoneal injection. (The dose concentrated is a mmoles/kg/5-10 ml H2 O or 1% gum arabic depending on the solubility of the compound.) Rats are sacrificed by decapitation after a 30 minute pulse consisting of: 1mCi^3 H2 O,5 μCi[U-^14 C]alanine, 12.3 mg. alanine, and 30.6 mg α-ketoglutaric acid in […], given at the end of the 3 hour meal by i.v. injection into the tail vein. Blood was collected, allowed to clot and the serum analyzed for triglyceride and cholesterol levels. The livers are quickly excised, saponified, and acidified (only for determining the rate of lipogenesis) and extracted with hexane. At this stage the lipids are either counted (to determine the rate of lipogenesis) or precipitated with digitonin, washed, and counted (to determine the rate of cholesterogenesis). The conversion of ^3 H2 O and [^14 C]alanine into fatty acids or sterols is determined in a PDS/3, Mark II liquid scintillation counting system. Data are expressed as moles ^3 H2 O nmoles converted into fatty acids and cholesterol per g liver per 30 minutes. […]
as §2

[4] = test system: Fatty Acid Synthesis (liver); assay: In vivo fatty acid synthesis in rat liver after oral administration (Table IV); settings: oral 1.2 mmoles/kg
Procedure: (§4) Rats are prepared by fasting 48 hours and refeeding a 1% corn oil 70% glucose diet for several days (5-15). On the experimental day, rats are dosed 30 or 60 minutes before the 3 hour meal by oral intubation, or 60 minutes after the end of the 3 hour meal by intraperitoneal injection. (The dose concentrated is a mmoles/kg/5-10 ml H2 O or 1% gum arabic depending on the solubility of the compound.) Rats are sacrificed by decapitation after a 30 minute pulse consisting of: 1mCi^3 H2 O,5 μCi[U-^14 C]alanine, 12.3 mg. alanine, and 30.6 mg α-ketoglutaric acid in […], given at the end of the 3 hour meal by i.v. injection into the tail vein. Blood was collected, allowed to clot and the serum analyzed for triglyceride and cholesterol levels. The livers are quickly excised, saponified, and acidified (only for determining the rate of lipogenesis) and extracted with hexane. At this stage the lipids are either counted (to determine the rate of lipogenesis) or precipitated with digitonin, washed, and counted (to determine the rate of cholesterogenesis). The conversion of ^3 H2 O and [^14 C]alanine into fatty acids or sterols is determined in a PDS/3, Mark II liquid scintillation counting system. Data are expressed as moles ^3 H2 O nmoles converted into fatty acids and cholesterol per g liver per 30 minutes.
(§5) ^a Charles River CD rats (6 rats per group at 160-180 g) were fasted
(§6) 48 hours, then mealfed a high carbohydrate diet for 18 days. On the
(§7) experimental day, rats were given an oral dose (1% gum arabic or
(§8) 3amino-4-carbomethoxy-2-n-propylthiophene hydrochloride in 1% gum arabic
(§9) at the above concentrations) 30 minutes before the beginning of the meal.
(§10) At the end of the 3 hour meal, the rats were given an i.v. pulse,
sacrificed 30 minutes later and rates of synthesis were determined.
(§11) ^b Data are expressed as μmoles ^3 H2 O and nmoles
[^14 C]alanine converted into fatty acids per g liver per 30 minutes.

[5] = test system: Cholesterol Synthesis (liver); assay: In vivo cholesterol synthesis in rat liver after oral administration (Table V); settings: for Cholesterol Synthesis, 3H2O converted: control 1.35 ± 0.04; for Cholesterol Synthesis, [14C]alanine converted: control 33.0 ± 3.1
Procedure: as §4, §5, §6, §7, §8, §9, §10
sacrificed 30 minutes later, and rates of synthesis were determined.
as §11
[^14 C]alanine converted into cholesterol per g liver per 30 minutes.

[6] = test system: Hepatic Fatty Acid Synthesis; assay: Hepatic fatty acid synthesis after oral administration at increasing concentrations (Table VI); assay type: in vivo, rat; settings: oral gavage, 0.4 to 1.2 mmoles/kg over 10 days
Procedure: as §4
(§12) ^a Charles River female rats were fasted 48 hr, then mealfed (8 to 11
(§13) a.m.) a high carbohydrate diet for 14 days. Rats weighing 180 to 210 g (1
(§14) in each group) were dosed by gastric gavage, with either 1% gum arabic or
(§15) Compound A in 1% gum arabic. The initial dose was 0.4 mmoles (89 mg) per
(§16) kg body weight and was increased by 0.2 mmoles (44 mg) per kg body weight
(§17) every other day. The experimental period consisted of 10 days, and the
(§18) doses given were 0.4, 0.6, 0.8, 1.0 and 1.2 mmoles per kg. All rats were
(§19) fed 1/2 hr after the oral dose. On the 10th day, following the 3 hr meal,
(§20) each rat received an intravenous injection (consisting of 5 μCi
(§21) [U^14 C]alanine, 1 mCi ^3 H2 O, 12.3 mg alanine and 30.6 mg
(§22) ketoglutaric acid) and was killed 30 min later. Livers were quickly
(§23) excised, saponified, and extracted for fatty acids or cholesterol. Data
(§24) are expressed as μmoles ^3 H2 O or nmoles [^14 C]alanine
(§25) converted into fatty acids or cholesterol per gram liver per 30 min.
(§26) Each value is the mean ± SE.

[7] = test system: Hepatic Cholesterol Synthesis; assay: Hepatic cholesterol synthesis after oral administration at increasing concentrations (Table VI); assay type: in vivo, rat; settings: oral gavage, 0.4 to 1.2 mmoles/kg over 10 days
Procedure: as §4, §12, §13, §14, §15, §16, §17, §18, §19, §20, §21, §22, §23, §24, §25, §26

[8] = Serum triglycerides, cholesterol, insulin and glucose after oral administration at increasing concentrations (Table VII); assay type: in vivo, rat; settings: oral gavage, 0.4 to 1.2 mmoles/kg over 10 days
Procedure: as §4, §12, §13, §14, §15, §16, §17, §18
fed 1/2 hr after the oral dose. On the 10th day, following the 3 hr meal
as §20, §21
ketoglutaric acid) and was killed 30 min later. Blood was collected,
allowed to clot and serum analyzed.
Each value is the mean ±SE

[9] = Body weight and food intake in ad libitum high fat fed rats, 63 day study (Table VIII); assay type: in vivo, rat
Procedure: (§27) As previously mentioned, the compounds disclosed and claimed herein are also useful as antiobesity agents. […] Groups of 10 rats were fed ad libitum a 10% corn oil, 60% glucose diet in accordance with the methodology described in Sullivan et al., Am. J. Clin. Nutr. 30:767-776 (1977). The effect of 4-amino-5-ethyl-3-thiophene carboxylic acid methyl ester hydrochloride on body weight, total body fat and protein was determined. The results are tabulated in Example 35 (Table VIII and Table IX) of the specification.
(§28) The antiobesity activity of 4-amino-5-ethyl-3-thiophene carboxylic acid methyl ester hydrochloride (Compound A) was evaluated in a long-term chronic experiment in which body weight gain and food consumption were monitored at least biweekly. The study was conducted on Charles River rats receiving 10% corn oil: 60% glucose (high fat) diets. For the first 32 days of this study a dose of approximately 71 mg./kg. body weight/day was given. From day 33 until the end of the study the average daily dose was increased to 130 mg./kg. body weight/day. The study included a group of rats pair-fed to the Compound A treated rats, i.e., the pair-fed animals received the same amount of food as their Compound A paired rat consumed on the previous day. Pair feeding was terminated several days after food intake in the Compound A treated groups returned to control levels. Pair-feeding to the Compound A treated group was terminated on day 22. Upon termination of the study, carcass lipid and protein levels, serum lipids and hepatic rates of fatty acid synthesis in vivo were determined. A summary of the initial and final body weights, cumulative weight gained and food consumed and average daily food intake is presented in Table VIII.
(§29) ^a Female Charles River rats (10 rats per group) were fed ad libitum
(§30) the 10% corn oil:60% glucose diet. On day 1 of the experiment rats were
(§31) divided into three groups: (1) control, (2) Compound A as a dietary
admixture (71 mg/kg body weight/day, and (3) pairfed to the Compound A
treated group. Pairfeeding was terminated on day 23. On day 33 the
concentraton of Compound A was increased to 130 mg/kg/day.

[10] = Total body fat and protein in ad libitum high fat fed rats, 63 day study (Table IX); assay type: in vivo, rat; settings: dietary admixture 71 then (day 33) 130 mg/kg/day, 63 days
Procedure: as §27, §28, §29, §30, §31
admixture (71 mg/kg body weight/day), and (3) pairfed to the Compound A
treated group. Pairfeeding was terminated on day 22. On day 33 the
concentration of Compound A was increased to 130 mg/kg/day.

[11] = oral 0.4 nmoles/kg (so in the source)

SMILES: CCCc1scc(C(=O)OC)c1N.Cl [3-amino-4-carbomethoxy-2-n-propylthiophene hydrochloride]
- Fatty Acid Synthesis, [14C]alanine converted [1]: 251 ± 36 nmoles/g/30 min.
- Cholesterol Synthesis, 3H2O converted ([2]; control 1.36 ± 0.07): 0.85 ± 0.06 μmoles/g/30 min.
- Cholesterol Synthesis, [14C]alanine converted ([2]; control 35.7 ± 3.2): 17.6 ± 1.9 nmoles/g/30 min
- Triglycerides (serum) ([3]; control 67 ± 4): 51 ± 3 mg %
- Cholesterol (serum) ([3]; control 116 ± 7): 105 ± 11 mg %
- Fatty Acid Synthesis, 3H2O, % of Control [4]: 36 % of Control
- Fatty Acid Synthesis, [14C]alanine, % of Control [4]: 34 % of Control
- Fatty Acid Synthesis, 3H2O converted ([4]; control 19.6 ± 2.4): 7.1 ± 1.7 μmoles/g/30 min.
- Fatty Acid Synthesis, [14C]alanine converted ([4]; control 473 ± 76): 162 ± 60 nmoles/g/30 min.
- Cholesterol Synthesis, 3H2O, % of Control [5, 11]: 71 % of Control
- Cholesterol Synthesis, [14C]alanine, % of Control [5, 11]: 53 % of Control
- Cholesterol Synthesis, 3H2O converted [5, 11]: 0.96 ± 0.05 μmoles/g/30 min.
- Cholesterol Synthesis, [14C]alanine converted [5, 11]: 17.4 ± 0.9 nmoles/g/30 min.
- Cholesterol Synthesis, 3H2O, % of Control ([5]; oral 1.2 mmoles/kg): 65 % of Control
- Cholesterol Synthesis, [14C]alanine, % of Control ([5]; oral 1.2 mmoles/kg): 46 % of Control
- Cholesterol Synthesis, 3H2O converted ([5]; oral 1.2 mmoles/kg): 0.88 ± 0.16 μmoles/g/30 min.
- Cholesterol Synthesis, [14C]alanine converted ([5]; oral 1.2 mmoles/kg): 15.2 ± 3.2 nmoles/g/30 min.

SMILES: CCc1scc(C(=O)OC)c1N.Cl [Compound A, 4-amino-5-ethyl-3-thiophenecarboxylic acid methyl ester hydrochloride]
- Fatty Acid Synthesis, 3H2O (value in parentheses, relative to control) [6]: 49%
- Fatty Acid Synthesis, [14C]alanine (value in parentheses, relative to control) [6]: 42%
- Fatty Acid Synthesis, 3H2O ([6]; mean ± SE, control 36.7 ± 2.7): 18.0 ± 2.3 μmoles/g/30 min
- Fatty Acid Synthesis, [14C]alanine ([6]; mean ± SE, control 685 ± 59): 290 ± 49 nmoles/g/30 min
- Cholesterol Synthesis, 3H2O (value in parentheses, relative to control) [7]: 120%
- Cholesterol Synthesis, [14C]alanine (value in parentheses, relative to control) [7]: 114%
- Cholesterol Synthesis, 3H2O ([7]; mean ± SE, control 0.50 ± 0.06): 0.60 ± 0.06 μmoles/g/30
- Cholesterol Synthesis, [14C]alanine ([7]; mean ± SE, control 13.9 ± 1.5): 15.8 ± 1.6 nmol/g/30 min
- Cholesterol (value in parentheses, relative to control) [8]: 81%
- Glucose (value in parentheses, relative to control) [8]: 97%
- Insulin (value in parentheses, relative to control) [8]: 49%
- Triglycerides (value in parentheses, relative to control) [8]: 62%
- Insulin (serum) ([8]; mean ± SE, control 3.85 ± 0.74): 1.91 ± 0.24 ng/mL
- Triglycerides (serum) ([8]; mean ± SE, control 51 ± 3): 31 ± 3 mg %
- Cholesterol (serum) ([8]; mean ± SE, control 97 ± 5): 79 ± 6 mg %
- Glucose (serum) ([8]; mean ± SE, control 165 ± 7): 160 ± 5 mg %
- IBW (initial body weight) ([9]; baseline of Compound A group, control 215 ± 3): 214 ± 3 g
- FI (food intake) ([9]; dietary admixture 71 then (day 33) 130 mg/kg/day, 63 days, control 17.7 ± 0.7, pair-fed 16.0 ± 0.4): 16.3 ± 0.4 g/day
- CBWG (cumulative body weight gain) ([9]; dietary admixture 71 then (day 33) 130 mg/kg/day, 63 days, control 68 ± 6, pair-fed 66 ± 6): 41 ± 4 g
- FBW (final body weight) ([9]; dietary admixture 71 then (day 33) 130 mg/kg/day, 63 days, control 282 ± 8, pair-fed 281 ± 6): 256 ± 4 g
- CFC (cumulative food consumption) ([9]; dietary admixture 71 then (day 33) 130 mg/kg/day, 63 days, control 1115.1 ± 44.1, pair-fed 1008.0 ± 25.2): 1026.9 ± 25.2 g
- Protein, % of body weight ([10]; control 19.1 ± 1.6): 20.7 ± 1.4 % of body weight
- Lipid, % of body weight ([10]; control 23.5 ± 2.2): 16.5 ± 1.7 % of body weight
- Protein, total ([10]; control 54.1 ± 4.8): 52.7 ± 0.6 g
- Lipid, total ([10]; control 66.8 ± 7.1): 42.1 ± 4.5 g
